According to PubChem BioAssay (NCI):
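Assay format: 96-well plates, 48-hour exposure. TGI: concentration producing complete growth inhibition.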

Columns and labels:
Test in all cases: NCI-60 cell line screen, 48 h
A498 renal = system: A498 renal
SN12C renal = system: SN12C renal
TK-10 renal = system: TK-10 renal
CAKI-1 renal = system: CAKI-1 renal
OVCAR-8 ovarian = system: OVCAR-8 ovarian
NCI-H522 lung = system: NCI-H522 lung
KM20L2 colon = system: KM20L2 colon
NCI-H226 lung = system: NCI-H226 lung
HCT-15 colon = system: HCT-15 colon
HOP-18 NSCLC = system: HOP-18 NSCLC
SF-295 CNS = system: SF-295 CNS
OVCAR-5 ovarian = system: OVCAR-5 ovarian
ACHN renal = system: ACHN renal
EKVX NSCLC = system: EKVX NSCLC
786-0 renal = system: 786-0 renal
LXFL 529 NSCLC = system: LXFL 529 NSCLC
OVCAR-3 ovarian = system: OVCAR-3 ovarian
RXF 393 renal = system: RXF 393 renal
DLD-1 colon = system: DLD-1 colon
A549 NSCLC = system: A549 NSCLC
SK-MEL-5 melanoma = system: SK-MEL-5 melanoma
XF 498 CNS = system: XF 498 CNS
DMS 114 small cell lung = system: DMS 114 small cell lung
LOX IMVI melanoma = system: LOX IMVI melanoma
RPMI-8226 leukemia = system: RPMI-8226 leukemia
M19-MEL melanoma = system: M19-MEL melanoma
UACC-257 melanoma = system: UACC-257 melanoma
SK-MEL-28 melanoma = system: SK-MEL-28 melanoma
SF-539 CNS = system: SF-539 CNS
CCRF-CEM leukemia = system: CCRF-CEM leukemia
DMS 273 small cell lung = system: DMS 273 small cell lung
OVCAR-4 ovarian = system: OVCAR-4 ovarian
UACC-62 melanoma = system: UACC-62 melanoma
IGROV1 ovarian = system: IGROV1 ovarian
KM12 colon = system: KM12 colon
HT29 colon = system: HT29 colon
UO-31 renal = system: UO-31 renal
HCC-2998 colon = system: HCC-2998 colon
HOP-62 NSCLC = system: HOP-62 NSCLC
MALME-3M melanoma = system: MALME-3M melanoma
M14 melanoma = system: M14 melanoma
SW-620 colon = system: SW-620 colon
SK-MEL-2 melanoma = system: SK-MEL-2 melanoma
NCI-H23 lung = system: NCI-H23 lung
COLO 205 colon = system: COLO 205 colon
K-562 leukemia = system: K-562 leukemia
SK-OV-3 ovarian = system: SK-OV-3 ovarian
SR leukemia = system: SR leukemia
HL-60(TB) leukemia = system: HL-60(TB) leukemia
HOP-92 NSCLC = system: HOP-92 NSCLC
U251 CNS = system: U251 CNS
SF-268 CNS = system: SF-268 CNS
SNB-75 CNS = system: SNB-75 CNS
SNB-78 CNS = system: SNB-78 CNS
HCT-116 colon = system: HCT-116 colon
MOLT-4 leukemia = system: MOLT-4 leukemia

With `COc1ccc2nc3cc(Cl)ccc3c(NCCC[N+](C)(C)CCCCCCCCCCCCCCCC[N+](C)(C)CCCNc3c4ccc(Cl)cc4nc4ccc(OC)cc34)c2c1` the TGI (A498 renal) was over 100 µM, the TGI (SN12C renal) was over 100 µM and the TGI (TK-10 renal) was 25.3 µM. It also gave a TGI (CAKI-1 renal) of over 100 µM, a TGI (OVCAR-8 ovarian) of over 100 µM and a TGI (NCI-H522 lung) of 8 µM. The TGI (KM20L2 colon) was over 100 µM, the TGI (NCI-H226 lung) was over 100 µM and the TGI (HCT-15 colon) was over 100 µM. The TGI (HOP-18 NSCLC) was 14 µM, the TGI (SF-295 CNS) was over 100 µM and the TGI (OVCAR-5 ovarian) was 14.2 µM. The TGI (ACHN renal) was over 100 µM, the TGI (EKVX NSCLC) was 9.97 µM and the TGI (786-0 renal) was over 100 µM. The TGI (LXFL 529 NSCLC) was 3.25 µM, the TGI (OVCAR-3 ovarian) was over 100 µM and the TGI (RXF 393 renal) was over 100 µM. It also gave a TGI (DLD-1 colon) of over 100 µM and a TGI (A549 NSCLC) of over 100 µM.

Work on `O=S(=O)(N/N=C/c1ccc(Cl)c(Cl)c1)c1ccccc1` yielded a TGI (SK-MEL-5 melanoma) of over 100 µM, a TGI (A498 renal) of 92.5 µM and a TGI (XF 498 CNS) of over 100 µM. For the same compound, the TGI (DMS 114 small cell lung) was 87 µM, the TGI (LOX IMVI melanoma) was over 100 µM and the TGI (SN12C renal) was over 100 µM. It also gave a TGI (TK-10 renal) of over 100 µM, a TGI (RPMI-8226 leukemia) of over 100 µM and a TGI (M19-MEL melanoma) of over 100 µM. For the same compound, the TGI (UACC-257 melanoma) was over 100 µM, the TGI (CAKI-1 renal) was over 100 µM and the TGI (OVCAR-8 ovarian) was over 100 µM. The TGI (SK-MEL-28 melanoma) was over 100 µM, the TGI (SF-539 CNS) was over 100 µM and the TGI (KM20L2 colon) was over 100 µM. For the same compound, the TGI (CCRF-CEM leukemia) was over 100 µM, the TGI (DMS 273 small cell lung) was over 100 µM and the TGI (OVCAR-4 ovarian) was over 100 µM. For the same compound, the TGI (NCI-H226 lung) was over 100 µM, the TGI (HCT-15 colon) was over 100 µM and the TGI (UACC-62 melanoma) was over 100 µM. The TGI (IGROV1 ovarian) was over 100 µM, the TGI (HOP-18 NSCLC) was over 100 µM and the TGI (SF-295 CNS) was over 100 µM. For the same compound, the TGI (OVCAR-5 ovarian) was over 100 µM, the TGI (KM12 colon) was over 100 µM and the TGI (HT29 colon) was over 100 µM. For the same compound, the TGI (ACHN renal) was over 100 µM, the TGI (UO-31 renal) was 94.2 µM and the TGI (EKVX NSCLC) was over 100 µM. The TGI (HCC-2998 colon) was over 100 µM, the TGI (HOP-62 NSCLC) was over 100 µM and the TGI (MALME-3M melanoma) was over 100 µM. It also gave a TGI (M14 melanoma) of over 100 µM, a TGI (SW-620 colon) of over 100 µM and a TGI (786-0 renal) of over 100 µM. The TGI (SK-MEL-2 melanoma) was over 100 µM, the TGI (NCI-H23 lung) was over 100 µM and the TGI (LXFL 529 NSCLC) was over 100 µM. For the same compound, the TGI (COLO 205 colon) was 39.6 µM, the TGI (OVCAR-3 ovarian) was over 100 µM and the TGI (K-562 leukemia) was over 100 µM. It also gave a TGI (RXF 393 renal) of 63.2 µM, a TGI (SK-OV-3 ovarian) of over 100 µM and a TGI (SR leukemia) of over 100 µM. It also gave a TGI (HL-60(TB) leukemia) of over 100 µM, a TGI (HOP-92 NSCLC) of 48.6 µM and a TGI (U251 CNS) of over 100 µM. It also gave a TGI (SF-268 CNS) of over 100 µM, a TGI (SNB-75 CNS) of over 100 µM and a TGI (DLD-1 colon) of over 100 µM. It also gave a TGI (SNB-78 CNS) of over 100 µM, a TGI (HCT-116 colon) of over 100 µM and a TGI (A549 NSCLC) of over 100 µM. For the same compound, the TGI (MOLT-4 leukemia) was 84.4 µM.
